Among the data in the PolyMetriX glass transition set are glass transition temperature values, retold here.

Regarding `*/C=C/C1CCC(*)C1` (repeat unit), the glass transition temperature came to 31.00 °C.
The compound `*C(=O)c1ccc2c(c1)C(=O)N(c1cccc(C(=O)c3ccc(C(=O)c4cccc(N5C(=O)c6ccc(*)cc6C5=O)c4)cc3)c1)C2=O` (repeat unit) showed a glass transition temperature of 240.00 °C.
Then `*C(=O)c1ccc2c(c1)C(=O)N(c1cccc(C(=O)c3cccc(N4C(=O)c5ccc(*)cc5C4=O)c3)c1)C2=O` (repeat unit), with 242.00 °C; and `*CCCCCCCCCCc1nc2ccc(-c3ccc4nc(*)oc4c3)cc2o1` (repeat unit), with 64.00 °C; and `*CCCCCCCCCc1nc2ccc(-c3ccc4nc(*)oc4c3)cc2o1` (repeat unit), with 64.00 °C.
The figure for `*CCCCCCCCc1nc2ccc(-c3ccc4nc(*)oc4c3)cc2o1` (repeat unit) is 223.50 °C; for `*CCCCCCCCc1nc2ccc(-c3ccc4nc(*)sc4c3)cc2s1` (repeat unit) it is 238.00 °C; for `*CCCCCCCc1nc2ccc(-c3ccc4nc(*)oc4c3)cc2o1` (repeat unit) it is 85.00 °C.
Then `*Oc1ccc(C(=O)c2cccc(C(=O)c3ccc(*)c(C(C)C)c3)c2)cc1CC` (repeat unit), with 136.00 °C.
In the case of `*Oc1ccc(C(=O)c2cccc(C(=O)c3ccc(*)c(CC)c3)c2)cc1CC` (repeat unit), the glass transition temperature is 126.00 °C.
`*Oc1ccc(C(=O)c2cccc(C(=O)c3ccc(Oc4cccc(Cc5cccc(*)c5)c4)cc3)c2)cc1` (repeat unit) displayed a glass transition temperature of 114.00 °C.
Then `*c1ccc(-c2ccc(-c3c(-c4ccccc4)nc4ccc(-c5ccc6nc(-c7ccccc7)c(*)c(-c7ccccc7)c6c5)cc4c3-c3ccccc3)cc2)cc1` (repeat unit), with 405.00 °C; and `*c1ccc(-c2ccc(-c3ccc4c(c3)C(CCCCCCCC)(CCCCCCCC)c3cc(-c5ccc(*)s5)ccc3-4)s2)cn1` (repeat unit), with 127.50 °C.
Then `*c1ccc(-c2nc3cc(S(=O)(=O)c4ccc5nc(*)c(-c6ccccc6)nc5c4)ccc3nc2-c2ccccc2)cc1` (repeat unit), with 277.50 °C.
Regarding `*c1ccc(-n2ccc(-c3cccc(-c4ccn(*)n4)c3)n2)cc1` (repeat unit), the glass transition temperature was 75.00 °C.
With `*c1ccc(C2(c3ccc(-c4cc(-c5ccccc5)c5cc(C6(c7ccc8nc(*)cc(-c9ccccc9)c8c7)c7ccccc7C(=O)c7ccccc76)ccc5n4)cc3)c3ccccc3-c3ccccc32)cc1` (repeat unit), the glass transition temperature was 405.00 °C.
`*c1ccc(OCCCCOc2ccc(-c3nc4ccc(-c5ccc6nc(*)c(-c7ccccc7)nc6c5)cc4nc3-c3ccccc3)cc2)cc1` (repeat unit) returned a glass transition temperature of 240.00 °C.
Regarding `*c1ccc(Oc2ccc(-c3cc(-c4cccc(-c5cc(*)c6ccccc6n5)c4)nc4ccccc34)cc2)cc1` (repeat unit), the glass transition temperature was 268.00 °C.
Then `*c1ccc(Oc2ccc(-c3cc(-c4ccccc4)c4cc(C5(c6ccc7nc(*)cc(-c8ccccc8)c7c6)c6ccccc6C(=O)c6ccccc65)ccc4n3)cc2)cc1` (repeat unit), with 320.00 °C; and `*c1ccc(Oc2ccc(-c3nc4cc(S(=O)(=O)c5ccc6nc(-c7ccccc7)c(*)nc6c5)ccc4nc3-c3ccccc3)cc2)cc1` (repeat unit), with 290.00 °C.
Then `*c1ccc(Sc2ccc(Sc3ccc(Sc4ccc(N5C(=O)c6ccc(-c7ccc8c(c7)C(=O)N(*)C8=O)cc6C5=O)cc4)cc3)cc2)cc1` (repeat unit), with 227.10 °C.
For `*c1ccc2c(c1)C(*)(C)CC2(C)C` (repeat unit), the glass transition temperature was determined as 215.50 °C.
The figure for `*c1ccc2c(c1)C(=O)N(c1ccc(Sc3ccc(Sc4ccc(N5C(=O)c6ccc(C(*)(C(F)(F)F)C(F)(F)F)cc6C5=O)cc4)cc3)cc1)C2=O` (repeat unit) is 257.00 °C; for `*c1ccc2c(c1)C(=O)N(c1ccc(Sc3ccc(Sc4ccc(Sc5ccc(Sc6ccc(N7C(=O)c8ccc(C(*)(C(F)(F)F)C(F)(F)F)cc8C7=O)cc6)cc5)cc4)cc3)cc1)C2=O` (repeat unit) it is 216.00 °C.
Then `*c1ccc2c(c1)C(=O)N(c1ccc3c(c1)-c1cc(N4C(=O)c5ccc(C(*)(C(F)(F)F)C(F)(F)F)cc5C4=O)ccc1C3)C2=O` (repeat unit), with 394.00 °C; and `*c1ccc2c(c1)C(=O)N(c1cccc(C(F)(F)C(F)(F)C(F)(F)C(F)(F)C(F)(F)c3cccc(N4C(=O)c5ccc(C(F)(F)C(F)(F)C(*)(F)F)cc5C4=O)c3)c1)C2=O` (repeat unit), with 111.00 °C; and `*c1ccc2c(c1)C(=O)N(c1cccc(C(F)(F)C(F)(F)C(F)(F)C(F)(F)C(F)(F)c3cccc(N4C(=O)c5ccc(C(F)(F)C(F)(F)C(F)(F)C(*)(F)F)cc5C4=O)c3)c1)C2=O` (repeat unit), with 144.00 °C.
Then `*c1ccc2c(c1)C(=O)N(c1cccc(C(F)(F)C(F)(F)C(F)(F)c3cccc(N4C(=O)c5ccc(C(F)(F)C(F)(F)C(*)(F)F)cc5C4=O)c3)c1)C2=O` (repeat unit), with 157.00 °C; and `*c1ccc2c(c1)C(=O)N(c1cccc(C(c3ccccc3)(c3cccc(N4C(=O)c5ccc(C(*)(C(F)(F)F)C(F)(F)F)cc5C4=O)c3)C(F)(F)F)c1)C2=O` (repeat unit), with 305.00 °C.
`*c1ccc2c(c1)C(=O)N(c1cccc(NC(=O)C(F)(F)C(F)(F)C(F)(F)C(F)(F)C(=O)Nc3cccc(N4C(=O)c5ccc(C(*)(C(F)(F)F)C(F)(F)F)cc5C4=O)c3)c1)C2=O` (repeat unit) yielded a glass transition temperature of 232.00 °C.
The figure for `*c1ccc2c(c1)C(=O)N(c1cccc(NC(=O)C(F)(F)C(F)(F)C(F)(F)C(F)(F)C(F)(F)C(F)(F)C(=O)Nc3cccc(N4C(=O)c5ccc(C(*)(C(F)(F)F)C(F)(F)F)cc5C4=O)c3)c1)C2=O` (repeat unit) is 218.00 °C; for `*c1ccc2c(c1)C(=O)N(c1cccc(Oc3cc(Oc4cccc(N5C(=O)c6ccc(C(*)(C(F)(F)F)C(F)(F)F)cc6C5=O)c4)ccc3P(=O)(c3ccccc3)c3ccccc3)c1)C2=O` (repeat unit) it is 230.00 °C.
Then `*c1ccc2c(c1)C(=O)N(c1cccc(P(=O)(c3cccc(N4C(=O)c5ccc(C(*)(C(F)(F)F)C(F)(F)F)cc5C4=O)c3)c3cc(C(F)(F)F)cc(C(F)(F)F)c3)c1)C2=O` (repeat unit), with 247.00 °C.
Turning to `*c1ccc2c(c1)C(=O)N(c1cccc3c(N4C(=O)c5ccc(C(*)(C(F)(F)F)C(F)(F)F)cc5C4=O)cccc13)C2=O` (repeat unit), the glass transition temperature was determined as 390.00 °C.
As for `*c1ccc2c(c1)C(CCCCCC)(CCCCCC)c1cc(-c3cc(CCCCCC)c(*)cc3CCCCCC)ccc1-2` (repeat unit), the glass transition temperature amounted to 78.80 °C.
Then `*c1ccc2c(c1)C(CCCCCC)(CCCCCC)c1cc(-c3ccc4c(c3)C(CC3=NC(Cc5ccccc5)CO3)(CC3=NC(Cc5ccccc5)CO3)c3cc(*)ccc3-4)ccc1-2` (repeat unit), with 114.00 °C; and `*c1ccc2c(c1)C(CCCCCCCC)(CCCCCCCC)c1cc(-c3ccc4c(c3)C(c3ccc(-c5nnc(-c6ccc(C(C)(C)C)cc6)o5)cc3)(c3ccc(-c5nnc(-c6ccc(C(C)(C)C)cc6)o5)cc3)c3cc(*)ccc3-4)ccc1-2` (repeat unit), with 213.00 °C.
The figure for `*c1ccc2c(c1)Cc1cc(-n3c(=O)c4cc5c(=O)n(*)c(=O)c5cc4c3=O)ccc1-2` (repeat unit) is 322.00 °C; for `*c1ccc2c(c1)Sc1cc(-c3ccc(-c4ccc(*)s4)s3)ccc1N2CCCCCC` (repeat unit) it is 140.00 °C; for `*c1ccc2c3ccc(-c4ccc(-c5ccc(-c6ccc(*)s6)c6nccnc56)s4)cc3n(C(CCCCCCCC)CCCCCCCC)c2c1` (repeat unit) it is 116.00 °C.
Then `*c1ccc2nc(*)cc(-c3ccccc3)c2c1` (repeat unit), with 415.00 °C.
For the compound `*c1ccc2oc(-c3ccc(-c4nc5cc(C(*)(C(F)(F)F)C(F)(F)F)ccc5o4)cc3)nc2c1` (repeat unit), the glass transition temperature was 371.50 °C.
Then `*c1ccc2oc(-c3cccc(-c4nc5cc(C(*)(C(F)(F)F)C(F)(F)F)ccc5o4)n3)nc2c1` (repeat unit), with 329.00 °C.
`*c1ccc2oc(-c3cccc(-c4nc5cc(C(*)(c6ccccc6)C(F)(F)F)ccc5o4)c3)nc2c1` (repeat unit) showed a glass transition temperature of 301.00 °C.
In turn, `*c1cccc(-c2nc3cc(-c4ccc5nc(*)c(-c6ccc7ccccc7c6)nc5c4)ccc3nc2-c2ccc3ccccc3c2)c1` (repeat unit) displayed a glass transition temperature of 317.00 °C.
`*c1cccc(C(=O)c2ccc(Oc3ccc(N4C(=O)c5ccc(Oc6ccc7c(c6)C(=O)N(*)C7=O)cc5C4=O)cc3C(F)(F)F)cc2)c1` (repeat unit) registered a glass transition temperature of 224.00 °C.
Then `*c1cccc(N2C(=O)c3ccc(-c4cccc5c4C(=O)N(*)C5=O)cc3C2=O)c1` (repeat unit), with 341.00 °C.
For `*c1cccc(N2C(=O)c3ccc(P(=O)(c4ccccc4)c4ccc5c(c4)C(=O)N(*)C5=O)cc3C2=O)c1` (repeat unit), the glass transition temperature was determined as 323.00 °C.
In turn, `*c1cccc(OCCCCCCCCCCOc2cccc(N3C(=O)c4ccc(-c5cccc6c5C(=O)N(*)C6=O)cc4C3=O)c2)c1` (repeat unit) came in with a glass transition temperature of 127.00 °C.
`*c1cccc(OCCCCCCOc2cccc(N3C(=O)c4ccc(-c5ccc6c(c5)C(=O)N(*)C6=O)cc4C3=O)c2)c1` (repeat unit) registered a glass transition temperature of 153.00 °C.
The compound `*c1cccc(OCCCOc2cccc(N3C(=O)c4ccc(-c5ccc6c(c5)C(=O)N(*)C6=O)cc4C3=O)c2)c1` (repeat unit) showed a glass transition temperature of 184.00 °C.
As for `*c1cccc(Oc2ccc(P(=O)(c3ccccc3)c3ccccc3)c(Oc3cccc(N4C(=O)c5ccc(-c6ccc7c(c6)C(=O)N(*)C7=O)cc5C4=O)c3)c2)c1` (repeat unit), the glass transition temperature came to 234.00 °C.
